Measurements from PMC6025875, “Genetic manipulation of Leishmania donovani threonyl tRNA synthetase facilitates its exploration as a potential therapeutic target” (PLoS Neglected Tropical Diseases, 2018).

Columns and labels:
[1] = target: T1, threonyl tRNA synthetase (LdThrRS) (Leishmania donovani, UniProt A0A3S7X901); assay: ITC at […]°C (N = […]); also inhibits aminoacylation of the purified enzyme, IC50 […]; assay type: binding
T1 construct: gene LdCL_350019100; full-length recombinant LdThrRS with N-terminal His6 tag (rLdThrRS, pET30a, E. coli BL21 (DE3))

purified protein = substrate: C[C@@H](O)[C@H](N)C(=O)O; assay: purified protein

Row | Molecule | Kd [1] [nM] | Km (purified protein) [µM]
1 | C[C@@H]1C[C@H](C)C[C@H](C)[C@@H](O)CC(=O)O[C@H]([C@@H]2CCC[C@H]2C(=O)O)C/C=C/C=C(/C#N)[C@H](O)[C@@H](C)C1 [borrelidin] | 40 | 
2 | threonyl tRNA synthetase (LdThrRS) (Leishmania donovani) (protein) MSGKKKAAEATVDLATLAEPGFWRQRVEIFEQLWQQQQNRYESMKAPIKVSLPDGKVMDAESWVTCPLDIAKRLSNSLPDKVIVARVNEALWDLTRPFEADCQLELLDWDDKDAREVFWHSSSHVLGYALERIFDTKLSVGPALEEGGFFYEGLTNRPVSESDYKAIESAMQELVKQKMPYQRLEVSKEDALRLFGYTEFKSKILASKVPDGGSCTVYRCGMLIDPCRGPHLPDTGRVKAFAVTKNSSSYFEGKAENEVLQRVYGISFPKNPMLTEWKTIQEEAAKRDHRVIGRQQNLFNFHEVSPGSAFWLPHGTRIYNTLVEFLRKKYRRCGFQEVISPNMYSSKLWMVSGHWEKYADNMFCTKCEKEDFGLKPMNCPGHCIMFASQPHSYKELPIRYADFGVLHRNELSGALTGLTRVRRFQQDDAHIFCRMDQITDEMEGQMQFLSDVYGVLGFKFYFYHSTRPANKLGSDALWDQSESYLRTALNRFCGIPEELPDPLHPDQRFHYDGKPDSVKKMKALMKKAERCEDPNAWKGPTNGGDGWIENAGDGAFYGPKIDIVVEDALRRRHQCATIQLDFNLPSRFGLKYTLPAAEKDETTVSPTEKQKHADPALTASSPAVEDCVSKPKPGTYEAAVRDLGIDLELDANQARPVMIHRAILGSLERSIAILCEHFGGDWPFWLSPRQVMVVPVSASNYEYSQQVRDTMHDAGFHADVDNGAATLDKKIRNAEKARYNFILVVGQKEQDATAVNIRARGEKRLGNKSLVEAVQWLKELADTHNREY |  | 250 ± 30
